From patent EP0139005A1, “ANTITUMOR COMPOSITION, METHOD FOR TREATING TUMOR, AND USE OF THE COMPOSITION FOR TREATING TUMOR” (Yoshitomi Pharmaceutical Industries, Ltd., priority 1982, dated 1984)

Experiments:
L1210 leukemia [1] = assay: L1210 leukemia implanted intraperitoneally, oral or subcutaneous treatment, survival (Experimental Example 4); format: in vivo, female CDF1 mice; settings: for Average Survival Time / Life-Prolongation Ratio (%): once daily for seven days
Description: (§1) The life-prolongation ratio was calculated by the following scheme (the same scheme is applied to the subsequent experimental examples).
(§2) Life-prolongation Ratio [formula] T : Average survival days of the treated group
(§3) C : Average survival days of the control group
(§4) Animals survived over 30 days or longer were estimated as 30-day survivors, and the cases where T/C equals to or greater than 125% were regarded as effective.
A plurality of groups each consisting of five female CDF1 mice (7-8 weeks old) were respectively implanted intraperitoneally with 10 cells of L1210 leukemia. After the next day of the implantation, the test animals were administered orally or subcutaneously once daily for seven days with Y-6430 or ESCC dissolved in physiological saline, and the average survival days and life-prolongation ratios in each group were calculated.
(§5) All the test animals died of tumor within 30 days.

experimental tumors = settings: L. Nemeth et al., Arzneim.-Forsh./Drug Res. 28(II), 1119-1123 (1978); cited from earlier work
L1210 leukemia [2] = assay: L1210 leukemia implanted intraperitoneally, i.p. treatment, survival (Experimental Example 3); format: in vivo, female CDF1 mice; settings: for Average Survival Time / Life-Prolongation Ratio (%): once daily for seven days; for effectiveness against L1210 leukemia: i.p., all doses of Table 4
Description: as §1, §2, §3, §4
A plurality of groups each consisting of five heads of female CDF1 mice (8 weeks old) were respectively implanted intraperitoneally with 10 cells of L1210 leukemia. After the next day of the implantation, Y-6430, ESCC and ESCC ethyl ester (hereinafter referred to ESCC-Et) in physiological saline were respectively administered once daily for seven days intraperitoneally, and the average survival days and life-prolongation ratios in each group were calculated.
as §5

P388 leukemia = P388 leukemia implanted intraperitoneally, survival (Experimental Example 2); format: in vivo, female CDF1 mice; settings: for 30-day Survivors / Average Survival Time / Life-Prolongation Ratio (%): once daily for seven days
Description: as §1, §2, §3, §4
A plurality of groups each consisting of five heads of female CDF1 mice (7-8 weeks old) were respectively implanted intraperitoneally with 10^6 cells of P388 leukemia. After 24 hours, Y-6430 and ESCC were respectively administered once daily for seven days, and average survival days, life-prolongation ratios and 30-day survivors in each group were calculated.

leukemia = settings: R.H. Adamson, Nature 217, 751-752 (1968); cited from earlier work

Q: With `CCNC(=O)SC[C@H](N)C(=O)O` [ESCC, S-ethylcarbamoyl-L-cysteine, reference compound] as the compound, how does the “Average Survival Time” value (L1210 leukemia [1]; 100 mg/kg/day s.c.) read?
A: 8.0 days

Q: And the “Life-Prolongation Ratio (%)” value (L1210 leukemia [1]; 100 mg/kg/day s.c.)?
A: 100%

Q: And the “Average Survival Time” value (L1210 leukemia [1]; 250 mg/kg/day s.c.)?
A: 8.0 days

Q: And the “Life-Prolongation Ratio (%)” value (L1210 leukemia [1]; 250 mg/kg/day s.c.)?
A: 100%

Q: And the “Average Survival Time” value (L1210 leukemia [1]; 500 mg/kg/day p.o.)?
A: 8.0 days

Q: And the “Life-Prolongation Ratio (%)” value (L1210 leukemia [1]; 500 mg/kg/day p.o.)?
A: 98%

Q: What about the “Average Survival Time” value (L1210 leukemia [1]; 500 mg/kg/day s.c.) of the same compound?
A: 8.0 days

Q: And the “Life-Prolongation Ratio (%)” value (L1210 leukemia [1]; 500 mg/kg/day s.c.)?
A: 100%

Q: What about the “Average Survival Time” value (L1210 leukemia [1]; 1,000 mg/kg/day p.o.) of the same compound?
A: 9.2 days

Q: And the “Life-Prolongation Ratio (%)” value (L1210 leukemia [1]; 1,000 mg/kg/day p.o.)?
A: 112%

Q: And the “Average Survival Time” value (L1210 leukemia [1]; 2,000 mg/kg/day p.o.)?
A: 9.6 days

Q: And the “Life-Prolongation Ratio (%)” value (L1210 leukemia [1]; 2,000 mg/kg/day p.o.)?
A: 117%

Q: And the “effectiveness against L1210 leukemia” value (L1210 leukemia [1]; oral and subcutaneous administration)?
A: ineffective

Q: And the “effect against experimental tumors” value (experimental tumors)?
A: more excellent effect than S-carbamoyl-L-cysteine

Q: And the “Average Survival Time” value (L1210 leukemia [2]; 50 mg/kg/day i.p.)?
A: 8.0 days

Q: What about the “Life-Prolongation Ratio (%)” value (L1210 leukemia [2]; 50 mg/kg/day i.p.) of the same compound?
A: 108%

Q: And the “Average Survival Time” value (L1210 leukemia [2]; 100 mg/kg/day i.p.)?
A: 8.0 days

Q: And the “Life-Prolongation Ratio (%)” value (L1210 leukemia [2]; 100 mg/kg/day i.p.)?
A: 108%

Q: What about the “Average Survival Time” value (L1210 leukemia [2]; 250 mg/kg/day i.p.) of the same compound?
A: 9.0 days

Q: And the “Life-Prolongation Ratio (%)” value (L1210 leukemia [2]; 250 mg/kg/day i.p.)?
A: 122%

Q: And the “Average Survival Time” value (L1210 leukemia [2]; 500 mg/kg/day i.p.)?
A: 9.0 days

Q: What about the “Life-Prolongation Ratio (%)” value (L1210 leukemia [2]; 500 mg/kg/day i.p.) of the same compound?
A: 122%

Q: And the “effectiveness against L1210 leukemia” value (L1210 leukemia [2])?
A: ineffective

Q: What about the “30-day Survivors” value (P388 leukemia; 100 mg/kg/day p.o.) of the same compound?
A: 0/5

Q: And the “Average Survival Time” value (P388 leukemia; 100 mg/kg/day p.o.)?
A: 10.2 days

Q: What about the “Life-Prolongation Ratio (%)” value (P388 leukemia; 100 mg/kg/day p.o.) of the same compound?
A: 102%

Q: What about the “30-day Survivors” value (P388 leukemia; 250 mg/kg/day p.o.) of the same compound?
A: 0/5

Q: And the “Average Survival Time” value (P388 leukemia; 250 mg/kg/day p.o.)?
A: 10.8 days

Q: And the “Life-Prolongation Ratio (%)” value (P388 leukemia; 250 mg/kg/day p.o.)?
A: 108%

Q: What about the “30-day Survivors” value (P388 leukemia; 500 mg/kg/day p.o.) of the same compound?
A: 0/5

Q: What about the “Average Survival Time” value (P388 leukemia; 500 mg/kg/day p.o.) of the same compound?
A: 10.8 days

Q: What about the “Life-Prolongation Ratio (%)” value (P388 leukemia; 500 mg/kg/day p.o.) of the same compound?
A: 108%

Q: And the “30-day Survivors” value (P388 leukemia; 1,000 mg/kg/day p.o.)?
A: 0/5

Q: And the “Average Survival Time” value (P388 leukemia; 1,000 mg/kg/day p.o.)?
A: 12.6 days

Q: And the “Life-Prolongation Ratio (%)” value (P388 leukemia; 1,000 mg/kg/day p.o.)?
A: 126%

Q: And the “effectiveness against P388 leukemia” value (P388 leukemia; summary of Tables 2 and 3, T/C equal to or greater than 125% regarded as effective)?
A: only slightly effective

Q: For `CCNC(=O)SC[C@H](N)C(=O)OCC` [ESCC-Et, ESCC ethyl ester], which “Average Survival Time” value (L1210 leukemia [2]; 50 mg/kg/day i.p.) is on record?
A: 8.2 days

Q: And the “Life-Prolongation Ratio (%)” value (L1210 leukemia [2]; 50 mg/kg/day i.p.)?
A: 103%

Q: What about the “Average Survival Time” value (L1210 leukemia [2]; 100 mg/kg/day i.p.) of the same compound?
A: 8.4 days

Q: And the “Life-Prolongation Ratio (%)” value (L1210 leukemia [2]; 100 mg/kg/day i.p.)?
A: 105%

Q: What about the “Average Survival Time” value (L1210 leukemia [2]; 250 mg/kg/day i.p.) of the same compound?
A: 9.0 days

Q: And the “Life-Prolongation Ratio (%)” value (L1210 leukemia [2]; 250 mg/kg/day i.p.)?
A: 113%

Q: And the “Average Survival Time” value (L1210 leukemia [2]; 500 mg/kg/day i.p.)?
A: 9.0 days

Q: And the “Life-Prolongation Ratio (%)” value (L1210 leukemia [2]; 500 mg/kg/day i.p.)?
A: 113%

Q: And the “effectiveness against L1210 leukemia” value (L1210 leukemia [2])?
A: ineffective

Q: With `NC(=O)SC[C@H](N)C(=O)O` [S-carbamoyl-L-cysteine] as the compound, how does the “effectiveness against leukemia in mice” value (leukemia) read?
A: effective
